Laboratory results taken from US8691865B2 (AbbVie Inc., priority 2008, dated 2014).

How the values were obtained:
Sprague Dawley rats [1] = assay: Analgesic effect against neuropathic pain, Bennett model (chronic constriction injury); assay type: in vivo; conditions: Rattus norvegicus, 1 h; 30 mg/kg po; mechanical allodynia 60 minutes after administration; CCI rats; read-out: % MPE
Protocol: (iii) In Vivo Data—Determination of Analgesic Effect Against Neuropathic Pain—Bennett Model
Animals were prepared for testing, by use of a surgical procedure that induces neuropathic pain in one paw. IACUC guidelines for rodent survival surgery are followed. All surgical procedures are conducted on a clean, uncluttered surgical station. The area is wiped with a 70% ethanol solution before and after use. All instruments are sterilized by either autoclave or chemical sterilant (such as 2% glutaraldehyde >10 hr). Surgeons wear sterile gloves (for the initial procedure), clean lab coat or scrubs, hairnet or cap, and a half-mask respirator (when not working under a hood). Surgeons thoroughly wash their hands prior to donning sterile gloves. Gloves are disinfected in-between animals by cleansing with povidone iodine, chlorhexidine or 70% alcohol for at least 30 seconds. If multiple surgeries are performed, the instruments are cleaned and sterilized between procedures with hot glass beads (>10 seconds). To prevent thermal or chemical burns, the instruments are cooled by rinsing in sterile saline before use.
To minimize post-operative dehydration/maintain blood volume during the surgery, warmed sterile saline or Lactate Ringers solution at 10-15 mL/kg is administered subcutaneously immediately before or after surgery. This facilitates better renal function and presumably anesthesia product excretion post surgery. For all surgical procedures, anesthesia is induced with 4-5% isoflurane. Anesthesia is be maintained during surgery with 1-3% isoflurane. Following induction, the surgical site is carefully shaved and the exposed area is aseptically prepared with povidone-iodine scrub solution and 70% ethanol 2-3 times.
After site sterilization and anesthetic procedures outline above are completed, a 1.5 cm incision is made at the mid-thigh level to expose the biceps femoris and gluteous superficialis (right side), which are then separated by blunt dissection. The common sciatic nerve is exposed, isolated, and loosely ligated by four 5-0 chromic gut ligatures with <1 mm spacing between each. The surgical site is closed in layers—muscle is closed with 6.0 absorbable sutures, and the skin closed with wound clips. Animals are allowed to recover on a warming plate and are returned to their home cages when fully ambulatory. Animals are not be used for testing until at least 10 days following surgery.
Filament strengths used are: 0.4, 0.6, 1.0, 2, 4, 6, 8, and 15 g. […] Filaments are applied perpendicular to the mid-plantar paw surface with enough force to cause slight buckling and held in place for 6-8 seconds. Positive responses include an abrupt withdrawal of the paw from the stimulus or flinching behavior immediately following removal of the stimulus. The maximum force applied will be 15 g. […] All compounds were orally administered in 10% dimethyl sulfoxide/polyethylene glycol at a volume of 2.0 mL/kg, and mechanical allodynia was determined 60 minutes following compound administration. Data are reported as log g values and the percentage of maximum possible effect (% MPE) is calculated using log g values with the formula: % MPE=(log [observed PWT in grams]−log [mean PWT vehicle])/(log [15]−log [mean PWT vehicle])*100 All statistical procedures are run on log g values.

Sprague Dawley rats [2] = assay: Capsaicin induced secondary mechanical hyperalgesia model; assay type: in vivo; conditions: po, 1 h, read-out: % inhibition @ 30 mg/kg p.o.; 30 mg/kg p.o. 60 minutes before testing; SMH measured 180 minutes after capsaicin; rat
Protocol: (ii) In Vivo Data—Capsaicin Induced Secondary Mechanical Hyperalgesia Model:
Sprague Dawley rats were briefly restrained, and capsaicin was administered at 10 μg in 10 μL of vehicle by intraplantar injection into the center of the right hind paw. Secondary mechanical hyperalgesia (SMH) was measured at the heel away from the site of injection 180 minutes following capsaicin exposure. Compounds and gabapentin (positive control), were administered p.o. 60 minutes before testing (2 hours after capsaicin) or i.p. 30 minutes before testing (2.5 hours after capsaicin). SMH was measured using calibrated von Frey filaments (Stoelting, Woodale, Ill.). Following the 1 hour habituation in the testing room, rats were moved to individual plexiglass chambers that sit on top of a wire mesh to allow for access for stimulation of the plantar surface of the hind paws. Rats were allowed to acclimate to the new chambers for 15 minutes before the onset of testing. The paw withdrawal threshold was determined by increasing and decreasing stimulus intensity (force: g) and calculated using Dixon's up-down method (Chaplan, S. R.; Bach, F. W.; Pogrel, J. W.; Chung, J. M.; Yaksh, T. L.; J. Neuroscience Methods 1994, 53(1), 55-63.). The filaments (maximum force of 15.0 g) were held in place for 8 seconds or until there was a withdrawal response from the mechanical stimulation.

human Cav2.2 = human Cav2.2 (Homo sapiens, UniProt Q00975); assay: Assessment of calcium channel activity using FLIPR (Ca2+ influx in IMR32 cells); assay type: cell-based
Chain of human Cav2.2 (Q00975 whole entry): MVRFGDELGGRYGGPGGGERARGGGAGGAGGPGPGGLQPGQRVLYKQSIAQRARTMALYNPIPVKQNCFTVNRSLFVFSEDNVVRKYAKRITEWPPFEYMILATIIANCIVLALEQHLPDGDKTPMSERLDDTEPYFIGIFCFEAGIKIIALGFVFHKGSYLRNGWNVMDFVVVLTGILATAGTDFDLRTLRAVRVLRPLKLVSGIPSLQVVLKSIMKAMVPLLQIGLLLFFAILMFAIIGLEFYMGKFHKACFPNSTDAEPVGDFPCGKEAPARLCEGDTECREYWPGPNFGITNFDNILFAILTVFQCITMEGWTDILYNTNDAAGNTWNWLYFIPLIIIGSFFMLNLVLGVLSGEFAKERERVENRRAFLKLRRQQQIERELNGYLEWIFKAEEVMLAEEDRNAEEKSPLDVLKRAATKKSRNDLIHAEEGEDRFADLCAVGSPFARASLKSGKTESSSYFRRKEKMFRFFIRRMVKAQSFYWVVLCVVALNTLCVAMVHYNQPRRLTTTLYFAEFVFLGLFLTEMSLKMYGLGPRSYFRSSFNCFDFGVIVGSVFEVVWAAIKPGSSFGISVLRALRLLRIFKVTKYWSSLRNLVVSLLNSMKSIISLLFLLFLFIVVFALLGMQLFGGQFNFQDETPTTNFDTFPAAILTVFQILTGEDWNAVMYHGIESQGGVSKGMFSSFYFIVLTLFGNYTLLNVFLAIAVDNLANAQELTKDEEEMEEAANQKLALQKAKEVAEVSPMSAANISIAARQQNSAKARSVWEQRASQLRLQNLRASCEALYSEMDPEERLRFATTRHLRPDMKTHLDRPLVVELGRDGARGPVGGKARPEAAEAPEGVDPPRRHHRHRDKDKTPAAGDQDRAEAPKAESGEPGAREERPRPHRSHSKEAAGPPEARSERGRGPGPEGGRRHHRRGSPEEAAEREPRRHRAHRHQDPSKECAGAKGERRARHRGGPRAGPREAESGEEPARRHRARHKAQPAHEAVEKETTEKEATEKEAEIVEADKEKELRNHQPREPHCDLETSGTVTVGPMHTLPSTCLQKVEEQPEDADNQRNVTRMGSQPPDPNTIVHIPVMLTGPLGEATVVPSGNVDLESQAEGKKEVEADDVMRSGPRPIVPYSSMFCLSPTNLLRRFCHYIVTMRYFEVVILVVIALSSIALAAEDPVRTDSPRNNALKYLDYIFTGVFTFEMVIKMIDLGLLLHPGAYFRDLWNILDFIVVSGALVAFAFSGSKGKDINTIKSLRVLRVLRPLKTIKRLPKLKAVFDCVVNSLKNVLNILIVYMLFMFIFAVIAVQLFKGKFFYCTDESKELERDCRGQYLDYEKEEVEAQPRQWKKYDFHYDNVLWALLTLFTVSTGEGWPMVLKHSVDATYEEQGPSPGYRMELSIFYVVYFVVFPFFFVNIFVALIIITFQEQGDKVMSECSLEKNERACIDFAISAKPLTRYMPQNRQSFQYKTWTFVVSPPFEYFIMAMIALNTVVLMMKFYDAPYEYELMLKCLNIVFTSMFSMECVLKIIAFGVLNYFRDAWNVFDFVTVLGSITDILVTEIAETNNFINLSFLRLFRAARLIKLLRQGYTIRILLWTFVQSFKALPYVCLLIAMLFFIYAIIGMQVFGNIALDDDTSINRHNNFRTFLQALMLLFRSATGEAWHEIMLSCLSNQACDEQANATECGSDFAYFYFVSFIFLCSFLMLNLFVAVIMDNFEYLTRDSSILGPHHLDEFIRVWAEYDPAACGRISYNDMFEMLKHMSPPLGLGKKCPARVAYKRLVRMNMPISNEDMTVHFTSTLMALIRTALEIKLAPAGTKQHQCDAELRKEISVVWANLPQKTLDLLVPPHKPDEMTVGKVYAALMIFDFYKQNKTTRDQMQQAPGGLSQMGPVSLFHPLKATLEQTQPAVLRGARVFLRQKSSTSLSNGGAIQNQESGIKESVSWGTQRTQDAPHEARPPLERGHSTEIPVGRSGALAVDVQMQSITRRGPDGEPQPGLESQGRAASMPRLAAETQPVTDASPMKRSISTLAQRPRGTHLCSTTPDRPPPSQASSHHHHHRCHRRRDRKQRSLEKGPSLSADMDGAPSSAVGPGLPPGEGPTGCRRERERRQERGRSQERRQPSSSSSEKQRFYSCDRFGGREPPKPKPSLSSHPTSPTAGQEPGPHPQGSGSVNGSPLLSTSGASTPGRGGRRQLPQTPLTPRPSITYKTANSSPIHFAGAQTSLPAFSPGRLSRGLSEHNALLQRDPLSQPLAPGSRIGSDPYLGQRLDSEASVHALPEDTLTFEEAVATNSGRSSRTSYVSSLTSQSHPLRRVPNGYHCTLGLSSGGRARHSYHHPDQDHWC
Chain of human Cav2.2 (P54289 25-956 partner limits assumed): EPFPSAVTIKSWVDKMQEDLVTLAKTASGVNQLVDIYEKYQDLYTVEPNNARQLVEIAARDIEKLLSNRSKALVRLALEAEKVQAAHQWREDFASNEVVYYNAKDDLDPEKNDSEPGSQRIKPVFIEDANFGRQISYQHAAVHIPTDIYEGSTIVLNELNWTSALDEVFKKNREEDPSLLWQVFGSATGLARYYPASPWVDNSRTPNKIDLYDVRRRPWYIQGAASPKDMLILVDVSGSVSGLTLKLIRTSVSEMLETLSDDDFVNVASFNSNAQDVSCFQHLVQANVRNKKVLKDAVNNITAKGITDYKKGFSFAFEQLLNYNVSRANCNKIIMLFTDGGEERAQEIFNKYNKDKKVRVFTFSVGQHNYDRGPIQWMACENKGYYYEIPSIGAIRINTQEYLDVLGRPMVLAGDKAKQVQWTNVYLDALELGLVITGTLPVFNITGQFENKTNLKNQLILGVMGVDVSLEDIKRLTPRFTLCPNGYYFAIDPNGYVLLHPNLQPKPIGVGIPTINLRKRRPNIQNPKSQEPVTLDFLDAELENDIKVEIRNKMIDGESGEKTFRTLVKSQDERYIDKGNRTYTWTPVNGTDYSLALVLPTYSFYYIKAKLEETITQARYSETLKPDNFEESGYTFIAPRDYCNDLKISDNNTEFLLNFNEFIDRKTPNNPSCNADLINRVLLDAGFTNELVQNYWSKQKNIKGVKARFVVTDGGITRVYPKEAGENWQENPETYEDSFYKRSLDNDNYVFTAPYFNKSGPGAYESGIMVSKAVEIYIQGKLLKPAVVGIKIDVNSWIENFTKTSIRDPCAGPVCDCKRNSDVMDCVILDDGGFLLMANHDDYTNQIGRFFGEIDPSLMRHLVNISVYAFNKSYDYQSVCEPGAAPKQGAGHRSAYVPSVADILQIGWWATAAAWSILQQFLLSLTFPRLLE
Chain of human Cav2.2 (P54289 957-1103 partner limits assumed): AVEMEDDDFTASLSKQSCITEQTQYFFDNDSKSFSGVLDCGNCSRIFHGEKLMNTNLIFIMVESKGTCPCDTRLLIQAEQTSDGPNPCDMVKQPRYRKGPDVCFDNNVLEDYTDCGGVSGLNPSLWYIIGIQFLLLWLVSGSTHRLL
Chain of human Cav2.2 (P54284 whole entry partner): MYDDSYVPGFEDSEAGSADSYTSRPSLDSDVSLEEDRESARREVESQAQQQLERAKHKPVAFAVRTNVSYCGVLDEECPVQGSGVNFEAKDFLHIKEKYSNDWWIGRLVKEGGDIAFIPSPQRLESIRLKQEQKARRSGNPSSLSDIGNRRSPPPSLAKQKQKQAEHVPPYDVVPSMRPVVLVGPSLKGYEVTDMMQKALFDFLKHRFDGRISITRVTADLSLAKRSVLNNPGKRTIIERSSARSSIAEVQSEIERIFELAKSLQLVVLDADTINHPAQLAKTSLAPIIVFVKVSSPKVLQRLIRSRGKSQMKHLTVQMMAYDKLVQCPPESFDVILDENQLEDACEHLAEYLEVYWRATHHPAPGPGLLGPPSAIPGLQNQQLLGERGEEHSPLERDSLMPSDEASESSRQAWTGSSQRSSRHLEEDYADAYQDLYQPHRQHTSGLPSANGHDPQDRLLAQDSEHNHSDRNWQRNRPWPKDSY
Method in brief: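 Human neuroblastoma IMR32 cells were seeded at 1−1.2×10^5 cells/well and cultured 48 h at 37 °C before FLIPR calcium influx measurement. Percent inhibition at each concentration was calculated against the no-inhibitor signal, and IC50 came from sigmoidal dose-response fits.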

Row | IC50 (human Cav2.2) | SMILES | inhibition in vivo at 30 mg/kg (Sprague Dawley rats [1]) | inhibition in vivo at 30 mg/kg (Sprague Dawley rats [2])
1 | 2.86 µM | CN[C@@H](CC(C)C)C(=O)N[C@H]1CC[C@@H]2CN(c3ccc(C(F)(F)F)cn3)C[C@@H]21 [Example 600, N^2-methyl-N-{(3aR,4S,6aS)-2-[5-(trifluoromethyl)pyridin-2-yl]octahydrocyclopenta[c]pyrrol-4-yl}-L-leucinamide] | 40% | 63%
2 | 1.46 µM | CN[C@@H](CC(C)(C)C)C(=O)N1C[C@H]2CC[C@H](NC(=O)C(c3ccc(F)cc3)c3ccc(F)cc3)[C@H]2C1 [Example 461, N-[(3aR,4S,6aS)-2-(N,4-dimethyl-L-leucyl)octahydrocyclopenta[c]pyrrol-4-yl]-2,2-bis(4-fluorophenyl)acetamide] |  | 43%
